In patent publication US20260345582A1, “PRODRUG FOR ANTI-AGING RELATED DISEASES AND USE METHOD THEREOF” (Beijing SunCell Bio-Medical Co., Ltd., priority 2022, published 2026):
“Also recorded” adds a separate entry of the source.

How the values were obtained:
[1] = tested on: normal cells (HEF, HELF, A549, MRC5, BJ, HUVEC); experiment: in vitro toxicity to normal (non-senescent) cells, multiple cell models (CCK-8); assay type: cell-based, human; conditions: especially some cells of primary origins sensitive to Bcl-xL inhibition
Source text: Induction of the Cellular Senescence

[2] = plasma metabolic stability, monkey; assay type: in vitro ADME; conditions: 120 min
Method: Plasma Metabolic Stability
Termination of the reaction was accomplished by the addition of 3× volume of acetonitrile and centrifugation at 16000 g for 20 minutes. The supernatant was taken for a LC-MS/MS analysis. The chromatographic column: Waters XSelect HSS T3; the flow rate: 500 μL/min; the eluent: A, water (0.1% formic acid); B, acetonitrile (0.1% formic acid); the gradient elution: 0-1.5 min, 5% B, 1.5-9 min, 5%-80% B, 9-12 min, 80%-100% B, 12-14 min, 100% B, 14-14.3 min, 100%-5% B, 14.3-15 min, 5% B.

[3] = tested on: mouse model of Bleomycin-induced pulmonary fibrosis; experiment: Bleomycin-induced pulmonary fibrosis model, overall therapeutic effect; assay type: in vivo, C57 mice; conditions: 5 mg/kg i.p., four weeks
Method: A. Modelling of a mouse model of Bleomycin-induced pulmonary fibrosis, and the schematic diagram of treatment. Mice were modelled with Bleomycin administered via tracheal instillation on day 0, and the treatment with intraperitoneal injection of the drug was started on day 4. The drug was administered for 3 consecutive days per week, followed by a 4-day withdrawal, for 4 weeks.
All drugs were mixed in 85% physiological saline, 5% DMSO (Sigma, D8418) and 10% Solutol HS 15 (Sigma, 42966), and administered to mice by intraperitoneal (i.p.) injection. To treat the bleomycin-injured young mice, A13 (2 mg/kg), A13bGa1 (5 mg/kg), or an empty vehicle control was administered three consecutive days per week for four weeks. A1331852 (abbreviated as A13) was purchased from MCE.
Bleomycin-Induced Pulmonary Fibrosis
Bleomycin was purchased from Selleck. As previously reported (Bivas-Benita et al., Eur J Pharm Biopharm 61, 214-218 (2005)), a transtracheal injection of bleomycin (2 mg/kg) was performed to the young male C57 mice (8-10 weeks old) to induce lung fibrosis. Drug treatment was initiated four days after modelling, and the drug was administered three consecutive days per week for four consecutive weeks, after which the mice were executed for material collection.

[4] = observation of status and clinical manifestations of mice during multiple rounds of administration; assay type: in vivo, C57 mice; conditions: for mice depilated, dispirited and in poor state: after 3 consecutive rounds
Method: B. The schematic diagram of the multiple dosing and the subsequent blood routine examinations in mice. The drug was administered on 3 consecutive days per week, followed by a 4-day interval, for 3 weeks continuous administration. The drug was administered by intraperitoneal injection in the afternoon on days 0, 1, 2, 7, 8, 9, 14, 15, and 16, and the blood was collected and tested in the morning on days 1, 3, 5, 8, 10, 12, 15, 17, and 19, respectively.
A single administration of A13 or A13bG was performed. Female 5-6 week old C57 mice were treated with a single intraperitoneal injection. A13 and A13bG were administered in three different dose groups of 2, 5, and 20 mg/kg. Approximately 50 μl of blood was collected from each mouse at different time points into the EDTA tubes (RAM Scientific) by means of inner canthal blood extraction, and analyzed using a haematology analyzer for a blood routine examination and a platelet counting. Multiple administrations of A13 or A13bG were performed. Female 5-6 week old C57 mice were treated with multiple intraperitoneal injections. A13 and A13bG were administered in three different dose groups of 2, 5 and 20 mg/kg, three consecutive days per week, followed by a 4-day withdrawal for 3 weeks. The time points of administration were in the afternoon of days 0, 1, 2, 7, 8, 9, 14, 15, and 16, and the time points of blood collection and testing were in the morning of days 1, 3, 5, 8, 10, 12, 15, 17, and 19, respectively.

mice depilated, dispirited and in poor state ([4]; 5 mg/kg dose group) | mice depilated, dispirited and in poor state ([4]; 20 mg/kg dose group) | SMILES | toxicity to the normal cells compared with the parent compound A13 [1] | metabolised at 2 h, 10 µM ([2]; 10 μM prodrug, read-out: The peak area after normalisation at minute 120, oxidative dehydrogenation metabolite) | remaining at 2 h, 10 µM ([2]; 10 μM, read-out: The peak area after normalisation at minute 120, initial drug) | anti-inflammatory and anti-fibrotic therapeutic effects [3] | status and clinical manifestations (abnormalities) ([4]; 5 mg/kg and 20 mg/kg, 3 consecutive weeks, FIG. 4D)
– | – | Cc1c(-c2ccc(N3CCc4cccc(C(=O)Nc5nc6ccccc6s5)c4C3)nc2C(=O)OCc2ccc(O[C@@H]3O[C@H](CO)[C@H](O)[C@H](O)[C@H]3O)c([N+](=O)[O-])c2)cnn1CC12CC3CC(CC(C3)C1)C2 [Compound A13bGa1] | greatly reduced | 0.04% | 100% | good anti-inflammatory and anti-fibrotic therapeutic effects | –
2 out of 4 | 2 out of 4 | Cc1c(-c2ccc(N3CCc4cccc(C(=O)Nc5nc6ccccc6s5)c4C3)nc2C(=O)O)cnn1CC12CC3CC(CC(C3)C1)C2 [Compound A13, 3-[1-(adamantan-1-ylmethyl)-5-methylpyrazol-4-yl]-6-{8-[(1,3-benzothiazol-2-yl)carbamoyl]-3,4-dihydro-1H-isoquinolin-2-yl}pyridine-2-carboxylic acid] | – | – | – | – | depilated, dispirited and in poor state; also recorded: hair loss and depression
